Test results reported in patent publication US6150357A, “Potassium channel agonists” (Merck & Co., Inc., priority 1999, dated 2000).
“Also recorded” adds a separate entry of the source. Where two headings read alike, the source gives them in different places.

How the values were obtained:
Assay type in all cases: cell-based
[1] = target: T1, slowly activating cardiac delayed rectifier potassium current (IKs) (Cavia porcellus, UniProt O70344); experiment: Whole-cell voltage-clamp of IKs in guinea pig ventricular myocytes; details: for V1/2 of IKs activation (isochronal, 7.5 s pulses): control 19.2±1.6 mV
T1 construct: Guinea pig ventricular myocytes were isolated as described; endogenous in cells; host or cells: isolated guinea pig ventricular myocytes
Description: (§1) Isolation of guinea pig ventricular myocytes.
(§2) Voltage-clamp of guinea pig ventricular myocytes. […] Pipettes were made from square bore (1.0 mm, o.d.) borosilicate capillary tubing (Glass Co. of America, Bargaintown, N. J.). […] (average 5.5±0.3 M.OMEGA.). Series resistance was compensated 40-70%. Currents were low-pass filtered (-3 dB at 0.2 kHz) before digitization at 1 kHz. […] Cells were voltage clamped at a holding potential (Vh) of -50 mV to inactivate INa. Time-dependent IKs amplitude was measured as the difference from the initial instantaneous current, following the settling of the capacity transient, to the final current level at the end of a depolarizing pulse. Tail current amplitude, IKtail, was measured as the difference from the holding current level to the peak tail current amplitude upon return to Vh. IKtail was normalized to the maximum measured amplitude (IKtail-max) following 7.5 s pulses. Averaged data was fit to a Boltzmann distribution of the form: IKtail /IKtail-max =1/(1+exp[(V1/2 -Vt)/k]) with a nonlinear least squares fitting routine (Origin, Microcal Software, Northampton, Mass.) to estimate the half-point (V1/2) and slope factor (k) for this relationship. The time courses of IKs activation and deactivation were fit with a double exponential relationship of the form: It =A0 +A1 e^-t/t 1+A2 e^-t/t 2 using a Chebeshev non-iterative fitting technique (pCLAMP, Axon Instruments, Foster City, Calif.).
(§3) Solutions. Compounds were dissolved in dimethyl sulfoxide (DMSO) at a stock concentration of 1 or 10 mM and diluted directly into test solutions. Serial dilutions were used to achieve the final test concentrations. […] Nisoldipine was prepared as a 4 mM stock solution in DMSO and diluted as needed.
(§4) Statistics. Data are expressed as mean ± SEM (N=number of cells). Concentration-dependent changes in AP parameters and individual ionic currents were assessed by repeated-measures analysis of variance (ANOVA). Post-Hoc comparison of the treatment to the control means were made with Dunnett's t-test to determine significant changes between the control and test group means. Statistical comparisons for the time constants of IKs activation and deactivation were made using a paired t-test. A one-tailed probability (p)<0.05 was considered significant.

[2] = target: T2, human KvLQT1 channels (Homo sapiens, UniProt P51787); experiment: Two-microelectrode voltage clamp of cloned KvLQT1 channels expressed in Xenopus oocytes; details: 1 μM
T2 construct: homotetramer
Procedure: cRNA injection and voltage-clamp of oocytes. The isolation and maintenance of Xenopus oocytes, in vitro transcription of KvLQT1 complementary RNA (cRNA) and its injection into oocytes were performed as described previously (Sanguinetti M C, Curran M E, Zou A, Shen J, Spector P S, Atkinson D L and Keating M T. (1996b). Coassembly of KvLQT1 and minK (IsK) proteins form cardiac IKs potassium channel. Nature 384: 80-83.; Sanguinetti M C, Jiang C, Curran M E and Keating M T. (1995). A mechanistic link between an inherited and an acquired cardiac arrhythmia: HERG encodes the IKr potassium channel. Cell 81: 299-307.). Stage V and VI oocytes were injected with 11.5 ng of KvLQT1 cRNA (46 nL of a 250 ng/μL solution) Currents were recorded 2 to 4 days later using standard two-microelectrode voltage clamp techniques and a Dagan TEV-200 amplifier. Oocytes were bathed at room temperature (22-25° C.) in a solution containing (mM): 94 NaCl, 2 KCl, 2 MgCl2, 0.1 CaCl2, 5 HEPES; pH 7.6.
(§5) Solutions. Compounds were dissolved in dimethyl sulfoxide (DMSO) at a stock concentration of 1 or 10 mM and diluted directly into test solutions. Serial dilutions were used to achieve the final test concentrations. DMSO at the concentrations used had no significant effect on any of the parameters measured in these studies. Nisoldipine was prepared as a 4 mM stock solution in DMSO and diluted as needed.

[3] = system: guinea pig isolated ventricular myocytes; experiment: Action potential studies in guinea pig isolated ventricular myocytes
Description: Isolation of guinea pig ventricular myocytes. Guinea pig ventricular myocytes were isolated as described (Salata J J, Jurkiewicz N K, Wallace A A, Stupienski R F III, Guinosso P J Jr and Lynch J J Jr. (1995). Cardiac electrophysiologic actions of the histamine H1 -receptor antagonists astemizole and terfenadine compared with chlorpheniramine and pyrilamine. Circ Res 76: 110-119.). After isolation, the cells were stored in HEPES-buffered saline (HBS) containing (mM): 132 NaCl, 4 KCl, 1.8 CaCl2, 1.2 MgCl2, 10 HEPES (formal name N-2-Hydoxyethylpiperazine-N-2-ethanesulfonic acid), 10 glucose, pH=7.2, at 24-26° C. until studied, usually within 8 hours after isolation.
Action potential studies. Transmembrane potentials were recorded using conventional microelectrodes filled with 3 M KCl (tip resistances 30-50 M.OMEGA.) using an Axoclamp 2B amplifier (Axon Instruments; Foster City, Calif.) as described (Fermini B, Jurkiewicz N K, Jow B, Guinosso P J Jr, Baskin E P, Lynch J J Jr and Salata J J. (1995). Use-dependent effects of the Class III antiarrhythmic agent NE-10064 (azimilide) on cardiac repolarization: Block of delayed rectifier potassium and L-type calcium currents. J Cardiovasc Pharmacol 26: 259-271.). Cells were superfused with HBS maintained at 37° C. at a rate of 2 ml/min. APs were evoked with brief current pulses (1 ms, 1.2 times threshold) delivered at a frequency of 1 Hz through the recording electrode using an active bridge circuit. Only cells showing normal AP configurations and resting membrane potentials equal to or more negative than -85 mV were used in this study. APs were studied after a ≥5 min control period, and after ≥5 min of superfusion with each concentration of drug. After reaching a steady state effect under each condition, 20 individual APs were sampled and digitally averaged. The amplitude at 50 ms (APA50 ms) and duration at 90% repolarization (APD90) were measured from the digitally averaged records. Concentration-response relationships were determined by measuring APs or currents in each cell under control conditions and during superfusion with successively increasing concentrations of a given drug.
as §5, §4

[4] = system: slowly activating cardiac delayed rectifier potassium current (IKs); experiment: Whole-cell voltage-clamp of IKs in guinea pig ventricular myocytes; details: 10 nM Iso alone; 0.5 s pulses
Description: as §1, §2, §3, §4

[5] = 10 μM, read-out: Agonist Effect - % Increase in IKs, Vt +50 mV
[6] = 1 μM, read-out: Agonist Effect - % Increase in IKs, Vt +50 mV
[7] = 10 μM, read-out: Agonist Effect - % Increase in IKs, Vt -10 mV

T2 sequence (P51787 whole entry): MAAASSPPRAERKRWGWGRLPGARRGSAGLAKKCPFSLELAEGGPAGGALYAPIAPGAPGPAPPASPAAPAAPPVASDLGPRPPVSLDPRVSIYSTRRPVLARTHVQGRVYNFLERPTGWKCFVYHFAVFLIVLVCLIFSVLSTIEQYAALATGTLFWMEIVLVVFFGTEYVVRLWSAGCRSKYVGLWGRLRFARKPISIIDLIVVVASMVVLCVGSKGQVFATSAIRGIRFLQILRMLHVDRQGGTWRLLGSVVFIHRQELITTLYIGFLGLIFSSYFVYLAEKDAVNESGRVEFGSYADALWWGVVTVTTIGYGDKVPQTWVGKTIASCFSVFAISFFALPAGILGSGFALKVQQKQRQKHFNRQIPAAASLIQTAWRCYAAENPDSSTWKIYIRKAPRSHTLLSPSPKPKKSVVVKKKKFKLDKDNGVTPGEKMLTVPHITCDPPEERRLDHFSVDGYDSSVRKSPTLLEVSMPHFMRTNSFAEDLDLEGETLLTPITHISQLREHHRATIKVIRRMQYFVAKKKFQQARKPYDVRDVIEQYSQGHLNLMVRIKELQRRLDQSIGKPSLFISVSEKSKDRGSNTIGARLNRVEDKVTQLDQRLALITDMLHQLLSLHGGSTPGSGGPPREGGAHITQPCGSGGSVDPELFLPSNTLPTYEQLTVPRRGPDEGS

Cc1cccc(N2C(=O)NC3(N=C(c4ccccc4)c4ccccc4N(C)C3=O)C2=O)c1 (stereo not drawn) [L6, 1-methyl-5-phenyl-1'-(3-tolyl)-spiro[3H-1,4-benzodiazepine-3,4'-imidazolidine]-2(1H),2',5'-trione]
activation at 10 µM [1, 5]: 31 ± 9%

CN1C(=O)[C@@H](Cc2c[nH]c3ccccc23)N=C(c2ccccc2F)c2ccccc21 [R-L3, (3-R)-1,3-dihydro-5-(2-fluorophenyl)-3-(1H-indol-3-ylmethyl)-1-methyl-2H-1,4-benzodiazepin-2-one]
fold induction at 0.03 µM ([1]; 30 nM, 3 s depolarizations to Vt -10 mV from Vh -50 mV, read-out: IKs increased by a factor): 17 ± 5 | V1/2 of IKs activation (isochronal, 7.5 s pulses) ([1]; 0.1 μM): 3.0±0.8 mV | activation at 0.1 µM ([1]; 0.1 μM, read-out: Agonist Effect - % Increase in IKs, Vt +50 mV): 25 ± 6% | activation at 0.1 µM ([1]; 0.1 μM, read-out: Agonist Effect - % Increase in IKs, Vt -10 mV): 431 ± 123% | fast time constants of IKs activation ([1]; 1 μM): slightly, but not significantly, faster | maximally activated IKs ([1]; 1 μM, Vt +60 mV, control 896±196 pA, not significantly increased): 953±183 pA | V1/2 of IKs activation (isochronal, 7.5 s pulses) ([1]; 1 μM): -4.9±3.4 mV | shift of V1/2 of IKs activation ([1]; 1 μM, following pretreatment with 100 nM timolol): -19 mV | activation at 1 µM [1, 6]: 40 ± 12% | effect on time-dependent IKs at the end of 7.5 s pulses ([1]; 10 μM, Vh -50 mV): increased time-dependent IKs at the end of 7.5 s pulses to potentials <+10 mV, but decreased IKs at more positive potentials | effect on slope factor k of IKs activation ([1]; 0.1 and 1 μM, control k 11.0±1.2 mV): not significantly changed; also recorded: had no effect on k | fast and slow time constants of IKs deactivation ([1]; -60 to -10 mV following 3 s pre-pulse to +30 mV): significantly increased | lowest concentration enhancing IKs ([1]; Vt -10 mV): 30 nM | concentration of maximal effect on IKs ([1]; Vt -10 mV, 3 s pulses): 1 µM | net effect on rate of KvLQT1 activation [2]: slow the rate of KvLQT1 activation | shift in the voltage dependence of KvLQT1 activation [2]: -10 mV | effect on KvLQT1 current ([2]; 2 s pulses to -70 to +60 mV): increased KvLQT1 | slope factor (k) of KvLQT1 activation ([2]; control 11 mV): 13 mV | V1/2 of KvLQT1 activation ([2]; control -28 mV): -40 mV | effect on rate of KvLQT1 deactivation ([2]; voltages negative to -40 mV): slowed the rate of KvLQT1 deactivation | decrease in APD90 ([3]; 1 μM R-L3 in the continued presence of 100 nM timolol): 14.6±2.2% | decrease in APD90 ([3]; 1 μM R-L3 in the presence of 30 nM Iso): 26.9±1.4% | decrease in APD90 ([3]; 1 μM, stimulation at 1 Hz): 14.2±1.6% | decrease in APD90 ([3]; 10 μM, stimulation at 1 Hz): 13.8±4.0% | effect on APD ([3]; 0.1-1.0 μM, 1 Hz): concentration-dependent shortening of APD | concentration at which shortening of APD was maximal ([3]; 1 Hz): 1 µM

CC(C)NCC(O)c1ccc(O)c(O)c1 (stereo not drawn) [Iso, isoproterenol, reference compound]
increase in IKs [4]: 1.75 fold | decrease in APD90 ([3]; 30 nM Iso alone): 12.9±2.9% | activation at 0.03 µM ([3]; Cavia porcellus, Ventricular myocyte, 30 nM Iso alone, read-out: increase in APA50ms): 6.6 ± 2.9%

CC(C)(C)NC[C@H](O)COc1nsnc1N1CCOCC1 [timolol, reference compound]
effect on AP configuration ([3]; 100 nM timolol): did not alter AP configuration | effect on the effects of 30 nM Iso on the action potential ([3]; 100 nM timolol): prevented the effects of 30 nM Iso

O=C1Nc2ccccc2C(c2ccccc2F)=N[C@@H]1Cc1c[nH]c2ccccc12 [R-L4, (3-R)-1,3-dihydro-5-(2-fluorophenyl)-3-(1H-indol-3-ylmethyl)-2H-1,4-benzodiazepin-2-one]
activation at 1 µM [1, 6]: 44 ± 9% | activation at 1 µM ([1]; 1 μM, read-out: Agonist Effect - % Increase in IKs, Vt -10 mV): 27 ± 7% | activation at 10 µM [1, 5]: 114 ± 13% | activation at 10 µM [1, 7]: 153 ± 37%

O=C1Nc2ccc(Cl)cc2C(c2ccccc2)=N[C@@H]1Cc1c[nH]c2ccccc12 [R-L5, (3-R)-7-chloro-1,3-dihydro-5-phenyl-3-(1H-indol-3-ylmethyl)-2H-1,4-benzodiazepin-2-one]
activation at 10 µM [1, 5]: 22 ± 6% | activation at 10 µM [1, 7]: 22 ± 10%

Cc1cccc(NC(=O)N2CCC3(CC2)CC(=O)c2ccccc2O3)c1 [L8, N-(3-tolyl)-1'-(carboxamido)-spiro[2H-1-benzopyran-2,4'-piperidin]-4(3H)-one]
Agonist Effect - % Increase in IKs, Vt -10 mV ([1]; 10 μM): no change | activation at 10 µM [1, 5]: 65 ± 17%

CN1C(=O)[C@H](Cc2c[nH]c3ccccc23)N=C(c2ccccc2F)c2ccccc21 [S-L3]
inhibition at 1 µM ([1]; 1 μM, end of a 1-s test pulse to +50 mV, read-out: block of IKs): 14.8 ± 4.3% | inhibition at 10 µM ([1]; 10 μM, end of a 1-s test pulse to +50 mV, read-out: block of IKs): 68.8 ± 3.4% | effect on IKs ([1]; 1 to 10 μM, test potentials -10 to +50 mV): blocked IKs at all concentrations

O=C1CC2(CCN(C(=O)Nc3ccccc3)CC2)Oc2ccccc21 [L7, N-phenyl-1'-(carboxamido)-spiro[2H-1-benzopyran-2,4'-piperidin]-4(3H)-one]
Agonist Effect - % Increase in IKs, Vt -10 mV ([1]; 1 μM): no change | activation at 1 µM [1, 6]: 111 ± 28%
